From paper PMC3034772 (Pharmaceutical research, 2010)
“And” between values parts separate entries of the source, which are not always exact repeats. Identical values can stand only once. Like-named read-outs stand apart in the source and are kept apart here.

Experiments:
[1] = in vivo
[2] = In combo PAMPA-BBB model, calculated log Po in situ
[3] = cited from earlier work
[4] = Charge class Q, dominant calculated charge state at pH 7.4; type: physicochemical
[5] = pKa determination, potentiometric; conditions: this work, 25°C, […] KCl (footnote b)
[6] = PAMPA; for Pm^7.4: pH 7.4
[7] = PAMPA
physchem = conditions: pKa
[8] = In situ brain perfusion permeability; conditions: from literature PS
[9] = cited from earlier work; remark: listed apart in the source
[10] = In situ brain perfusion, individual literature values; conditions: from literature PS
[11] = ref [38], cited from earlier work
[12] = PAMPA; for Pm^7.4: pH 7.4; remark: listed apart in the source
[13] = mouse, in vivo
[14] = cited from earlier work; remark: listed apart in the source
PAMPA-BBB Type II = conditions: 3 μL lipid-volume coated filters
[15] = dominant calculated concentration fraction of the drug in a charge state
[16] = efflux inhibition column: not satbl
[17] = difference observed minus calculated, external set, no efflux inhibition

For `O=C(O)CCCc1ccc(N(CCCl)CCCl)cc1` [Chlorambucil], the “log Po^in situ (obs)” value [1] is listed as −0.80, the “obs–calc (log Po^in situ)” value [2] is listed as 0.3 and the PS ([3]; in vivo) is listed as 250 10^−4 mLg^−1s^−1. For the same compound, the “log PS” value ([3]; in vivo) was −1.60, the “Q (charge class)” value [4] was “−” and the pKa ([5]; second pKa column) was 4.28. For the same compound, the pKa [5] was 4.6, the “log PABL” value [6] was −2.87 and the “log Po” value [6] was −2.45. The “log Ppara” value [6] was −7.16 and the “Pm^7.4” value [6] was 6.

In the case of `CN/C(=N/CCSCc1nc[nH]c1C)NC#N` [Cimetidine], the “obs–calc (log Po^in situ)” value ([2]; efflux inhibition bcrp(−/−)) is reported as −0.4, the “obs–calc (log Po^in situ)” value ([2]; efflux inhibition mdr1a(−/−)) is reported as 0.0 and the “obs–calc (log Po^in situ)” value ([2]; no efflux inhibition) is reported as −0.4 and −0.2. For the same compound, the “log PABL” value [7] was −4.62, the “log Po” value [7] was −6.40 and the “Pm^7.4” value ([7]; pH 7.4) was 0.4. The pKa (physchem) was 6.13, the “log Po^in situ (obs)” value ([8]; efflux inhibition bcrp(−/−)) was −5.95 and the PS ([9]; efflux inhibition bcrp(−/−)) was 1 10^−4 mLg^−1s^−1. For the same compound, the “log PS” value ([9]; efflux inhibition bcrp(−/−)) was −4.08 and the “Q (charge class)” value [4, 15] was 0.

With `COc1cccc2c1C(=O)c1c(O)c3c(c(O)c1C2=O)C[C@@](O)(C(=O)CO)C[C@@H]3O[C@H]1C[C@H](N)[C@H](O)[C@H](C)O1` [Doxorubicin] the “obs–calc (log Po^in situ)” value ([2]; efflux inhibition mdr1a(−/−)) was 1.7, the “obs–calc (log Po^in situ)” value ([2]; efflux inhibition mrp1(−/−)) was 1.4 and the “obs–calc (log Po^in situ)” value ([2]; efflux inhibition verapamil) was 1.6. For the same compound, the PS ([3]; efflux inhibition verapamil) was 4 10^−4 mLg^−1s^−1, the “log PS” value ([3]; efflux inhibition verapamil) was −3.44 and the “log Po^in situ (obs)” value ([8]; efflux inhibition mrp1(−/−)) was −3.35. The PS ([9]; efflux inhibition mrp1(−/−)) was 2 10^−4 mLg^−1s^−1, the “log PS” value ([9]; efflux inhibition mrp1(−/−)) was −3.66 and the “Q (charge class)” value [4, 15] was “+”. The “log Po^in situ (obs)” value ([10]; efflux inhibition verapamil) was −3.14, the “log PABL” value [6] was −4.61 and the “log Po” value [6] was −4.23. For the same compound, the “log Ppara” value [6] was −12 and the “Pm^7.4” value [6] was 0.3.

With `CNCCC(Oc1ccc(C(F)(F)F)cc1)c1ccccc1` (centres unmarked) [Fluoxetine] the pKa [5] was 9.79.

For `CC(C(=O)O)c1ccc(-c2ccccc2)c(F)c1` (centres unmarked) [Flurbiprofen], the “obs–calc (log Po^in situ)” value [2, 16] is listed as 0.0, the PS ([3]; in vivo) is listed as 158 10^−4 mLg^−1s^−1 and the “log PS” value ([3]; in vivo) is listed as −1.80. The pKa [11] was 4.18, the “Q (charge class)” value [4, 15] was “−” and the “log Po^in situ (obs)” value [10, 16] was −0.58. The “log PABL” value [6] was −2.84, the “log Po” value [6] was −2.35 and the “log Ppara” value [6] was −6.99. The “Pm^7.4” value [6] was 3.

In the case of `CC(C)n1c(/C=C/C(O)CC(O)CC(=O)O)c(-c2ccc(F)cc2)c2ccccc21` (centres unmarked) [Fluvastatin Acid], the “log Po” value [12] is reported as −3.56, the “Pm^7.4” value [12] is reported as 0.2 and the “obs–calc (log Po^in situ)” value ([2]; no efflux inhibition) is reported as 0.9. For the same compound, the “Q (charge class)” value [4, 15] was “−”.

For `OCCOCCN1CCN(C(c2ccccc2)c2ccc(Cl)cc2)CC1` (centres unmarked) [Hydroxyzine], the “obs–calc (log Po^in situ)” value ([2]; efflux inhibition CsA) is given as 0.6, the “obs–calc (log Po^in situ)” value ([2]; no efflux inhibition) is given as 0.7 and the PS ([3]; efflux inhibition CsA) is given as 393 10^−4 mLg^−1s^−1. The “log PS” value ([3]; efflux inhibition CsA) was −1.41, the pKa [11] was 7.52 and the pKa ([11]; second pKa column) was 2.66. The “Q (charge class)” value [4, 15] was 0, the “log Po^in situ (obs)” value ([10]; efflux inhibition CsA) was −3.04 and the “log PABL” value [6] was −3.26. For the same compound, the “log Po” value [6] was −3.72, the “log Ppara” value [6] was −8 and the “Pm^7.4” value [6] was 82.

In the case of `CCOC(=O)C1(c2ccccc2)CCN(C)CC1` [Meperidine], the “log Po^in situ (obs)” value [13] is reported as −2.08, the “log Po” value [12] is reported as −1.68 and the “Pm^7.4” value [12] is reported as 1290. For the same compound, the “log Po^in situ (obs)” value [1] was −2.05, the “obs–calc (log Po^in situ)” value [2] was −0.5 and the PS ([3]; in vivo) was 549 10^−4 mLg^−1s^−1. For the same compound, the “log PS” value ([3]; in vivo) was −1.26, the PS ([9]; mouse, in vivo) was 525 10^−4 mLg^−1s^−1 and the “log PS” value ([9]; mouse, in vivo) was −1.28. The “Q (charge class)” value [4] was “+”.

With `CCC(=O)C(CC(C)N(C)C)(c1ccccc1)c1ccccc1` (centres unmarked) [Methadone] the “log Po” value [12] was −2.18.

In the case of `O=C1C[C@@H](c2ccc(O)cc2)Oc2cc(O)cc(O)c21` [Naringenin], the “obs–calc (log Po^in situ)” value ([2]; efflux inhibition PSC833) is given as 0.0, the PS ([3]; in vivo) is given as 105 10^−4 mLg^−1s^−1 and the “log PS” value ([3]; in vivo) is given as −1.98. The pKa (physchem) was 10.4, the “Q (charge class)” value [4, 15] was 0 and the “log Po^in situ (obs)” value ([10]; efflux inhibition PSC833) was −3.96. The “log PABL” value [6] was −4.00, the “log Po” value [6] was −3.94 and the “log Ppara” value [6] was −6.93. For the same compound, the “Pm^7.4” value [6] was 33.

In the case of `O=c1c(O)c(-c2ccc(O)c(O)c2)oc2cc(O)cc(O)c12` [Quercetin], the “obs–calc (log Po^in situ)” value [2, 17] is reported as −0.4, the “obs–calc (log Po^in situ)” value ([2]; efflux inhibition GF120918) is reported as 0.7 and the “obs–calc (log Po^in situ)” value ([2]; efflux inhibition: PSC833) is reported as −0.3. The PS ([3]; efflux inhibition GF120918) was 22 10^−4 mLg^−1s^−1, the “log PS” value ([3]; efflux inhibition GF120918) was −2.65 and the pKa (physchem) was 9.4. The PS ([14]; efflux inhibition: PSC833) was 2 10^−4 mLg^−1s^−1, the “log PS” value ([14]; efflux inhibition: PSC833) was −3.67 and the “Q (charge class)” value [4, 15] was 0. The “log Po^in situ (obs)” value ([10]; efflux inhibition GF120918) was −4.03, the “log PABL” value [6] was −4.92 and the “log Po” value [6] was −4.40. The “log Ppara” value [6] was −6.87 and the “Pm^7.4” value [6] was 5.

For `C=C[C@H]1C[N@@]2CC[C@H]1C[C@@H]2[C@@H](O)c1ccnc2ccc(OC)cc12` [Quinidine], the PS ([14]; rat, in vivo) is listed as 4 10^−4 mLg^−1s^−1 and the “Q (charge class)” value [4, 15] is listed as “+”.

For `CC(C)(C)c1ccc(C(O)CCCN2CCC(C(O)(c3ccccc3)c3ccccc3)CC2)cc1` (centres unmarked) [Terfenadine], the “obs–calc (log Po^in situ)” value [2, 17] is listed as −0.9, the “obs–calc (log Po^in situ)” value ([2]; efflux inhibition CsA) is listed as 0.0 and the “log PS” value ([3]; efflux inhibition CsA) is listed as −1.39. The “Q (charge class)” value [4, 15] was “+”, the “log Po^in situ (obs)” value ([10]; efflux inhibition CsA) was −0.92 and the “log PABL” value [6] was −3.76. For the same compound, the “log Po” value [6] was −0.54 and the “log Ppara” value [6] was −5.70.

In the case of `COc1ccc(C(CN(C)C)C2(O)CCCCC2)cc1` (centres unmarked) [Venlafaxine], the “log Po^in situ (obs)” value [1] is given as −1.66, the “obs–calc (log Po^in situ)” value [2] is given as 0.6 and the PS ([3]; in vivo) is given as 104 10^−4 mLg^−1s^−1. The “log PS” value ([3]; in vivo) was −1.98, the “log Po” value (PAMPA-BBB Type II; PAMPA-BBB intrinsic permeability, Type II and I/II) was −2.17 and the “log PABL” value (PAMPA-BBB Type II; aqueous boundary layer permeability, Type II and I/II) was −3.22. For the same compound, the “Pm^7.4” value (PAMPA-BBB Type II; membrane permeability at pH 7.4, Type II and I/II) was 32 and the “Q (charge class)” value [4] was “+”.

For `CC[C@]1(O)C[C@@H]2CN(CCc3c([nH]c4ccccc34)[C@@](C(=O)OC)(c3cc4c(cc3OC)N(C)[C@H]3[C@@](O)(C(=O)OC)[C@H](OC(C)=O)[C@]5(CC)C=CCN6CC[C@]43[C@@H]65)C2)C1` [Vinblastine], the “obs–calc (log Po^in situ)” value ([2]; efflux inhibition GF120918) was 0.2, the “obs–calc (log Po^in situ)” value ([2]; efflux inhibition PSC833) was 0.1 and the “obs–calc (log Po^in situ)” value ([2]; efflux inhibition mdr1a(−/−)) was 0.2 and 0.4. The PS ([3]; efflux inhibition GF120918) was 6 10^−4 mLg^−1s^−1, the “log PS” value ([3]; efflux inhibition GF120918) was −3.25 and the PS ([3]; in vivo) was 4 10^−4 mLg^−1s^−1. The “log PS” value ([3]; in vivo) was −3.37, the “Q (charge class)” value [4, 15] was 0 and the “log Po^in situ (obs)” value ([10]; efflux inhibition GF120918) was −4.94. The “log Po^in situ (obs)” value ([10]; efflux inhibition PSC833) was −5.06, the “log PABL” value [6] was −3.25 and the “log Po” value [6] was −4.36. For the same compound, the “log Ppara” value [6] was −5.54 and the “Pm^7.4” value [6] was 32.

In the case of `CC[C@]1(O)C[C@H]2CN(CCc3c([nH]c4ccccc34)[C@@](C(=O)OC)(c3cc4c(cc3OC)N(C=O)[C@H]3[C@@](O)(C(=O)OC)[C@H](OC(C)=O)[C@]5(CC)C=CCN6CC[C@]43[C@@H]65)C2)C1` [Vincristine], the “obs–calc (log Po^in situ)” value ([2]; efflux inhibition mdr1a(−/−)) is reported as −0.1, the “obs–calc (log Po^in situ)” value ([2]; efflux inhibition mrp1(−/−)) is reported as −0.5 and the “log Po^in situ (obs)” value ([8]; efflux inhibition mrp1(−/−)) is reported as −5.95. The PS ([9]; efflux inhibition mrp1(−/−)) was 1 10^−4 mLg^−1s^−1, the “log PS” value ([9]; efflux inhibition mrp1(−/−)) was −4.25 and the “Q (charge class)” value [4, 15] was 0. For the same compound, the “log PABL” value [6] was −4.62, the “log Po” value [6] was −4.54 and the “log Ppara” value [6] was −7.67. For the same compound, the “Pm^7.4” value [6] was 14.

With `NC(Cc1ccc(F)cc1)C(=O)O` (centres unmarked) [p-F-Phenylalanine] the “log Po” value [12] was −6.13, the “Pm^7.4” value [12] was 0.7 and the “Q (charge class)” value [4] was “±”.
